Assay results reported in patent US20110092544A1, “FUNGICIDAL PYRIDINES” (E.I. DU PONT DE nemours and company, priority 2008, published 2011).

Tests used:
Assay type in all cases: in vivo
[1] = test system: Puccinia recondite f. sp. tritici; experiment: Test B: wheat leaf rust, preventive spray on wheat seedlings, visual disease rating; details: for pest or weed control at 200 ppm: 192 h
Method in brief: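 Wheat seedlings were sprayed to run-off with compound suspension, 200 ppm (≈500 g/ha) or 40 ppm where marked, containing surfactant in acetone/water. Inoculation with Puccinia recondita spores followed one day later, then 24 h in saturated humidity at 20° C and 7 days at 20° C. Disease control was rated visually, 0–100% versus controls.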

[2] = test system: Alternaria solani; experiment: Test E: tomato early blight, preventive spray on tomato seedlings, visual disease rating; details: for pest or weed control at 200 ppm: Alternaria solani, 168 h
Method in brief: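 Seedlings sprayed to run-off with compound in acetone/water plus 250 ppm Trem 014 (200 ppm ≈ 500 g/ha), inoculated with spores next day. Held 48 h saturated at 27 °C, then 5 days at 20 °C; visual rating 0–100% disease control relative to controls.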

[3] = test system: Plasmopara viticola; experiment: Test H: grape downy mildew, spray after inoculation of grape seedlings, visual disease rating
Description: (§1) General protocol for preparing test suspensions for Tests A-H: The test compounds were first dissolved in acetone in an amount equal to 3% of the final volume and then suspended at the desired concentration (in ppm) in acetone and purified water (50/50 mix) containing 250 ppm of the surfactant Trem® 014 (polyhydric alcohol esters). The resulting test suspensions were then used in tests A-H. Spraying a 200 ppm test suspension to the point of run-off on the test plants was the equivalent of a rate of 500 g/ha.
Grape seedlings were inoculated with a spore suspension of Plasmopara viticola (the causal agent of grape downy mildew) and incubated in a saturated atmosphere at 20° C. for 24 h. After a short drying period, the test suspension was sprayed to the point of run-off on the grape seedlings, and then moved to a growth chamber at 20° C. for 6 days, after which time the test units were placed back into a saturated atmosphere at 20° C. for 24 h. Upon removal, disease ratings were visually made.
(§2) Results for Tests A-H are given in Table A. In the table, a rating of 100 indicates 100% disease control and a rating of 0 indicates no disease control (relative to the controls). A dash (-) indicates no test results. All results are for compounds tested at 200 ppm except where the compound number is followed by “*” which indicates the compound was tested at 40 ppm.

[4] = test system: Erysiphe graminis f. sp. tritici; experiment: Test A: wheat powdery mildew, preventive spray on wheat seedlings, visual disease rating; details: for pest or weed control at 200 ppm: Blumeria graminis, 192 h
Method in brief: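 Acetone/water (50/50) suspension with 250 ppm surfactant sprayed to run-off on wheat seedlings (200 ppm ≈ 500 g/ha); inoculated next day with E. graminis spore dust. Incubated 8 days at 20° C, then visually rated 0–100% disease control versus untreated controls; tests at 200 ppm or 40 ppm.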

[5] = test system: Botrytis cinerea; experiment: Test F: tomato botrytis, preventive spray on tomato seedlings, visual disease rating; details: for pest or weed control at 200 ppm: Botrytis cinerea, 120 h
Method in brief: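 Tomato seedlings sprayed to run-off with compound suspended in acetone/water (50/50) plus 250 ppm Trem 014, at 200 ppm (≈500 g/ha) or 40 ppm where marked. Inoculated next day with B. cinerea spores, 48 h saturated atmosphere at 20 °C, then 3 days at 24 °C. Visual rating, 0–100% disease control relative to controls.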

[6] = test system: Rhizoctonia oryzae; experiment: Test G: turf brown patch, preventive spray on creeping bent grass seedlings, visual disease rating; details: for pest or weed control at 200 ppm: Waitea circinata, in Agrostis stolonifera, 120 h
Description: as §1
The test suspension was sprayed to the point of run-off on creeping bent grass seedlings. The following day the seedlings were inoculated with a spore suspension of Rhizoctonia oryzae (the causal agent of turf brown patch) and incubated in a saturated atmosphere at 27° C. for 48 h, and then moved to a growth chamber at 27° C. for 3 days, after which time disease ratings were visually made.
as §2

[7] = test system: Septoria tritici; experiment: Test C: wheat leaf blotch, preventive spray on wheat seedlings, visual disease rating
Method in brief: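 Wheat seedlings sprayed to run-off with compound in acetone/water plus 250 ppm surfactant at 200 ppm (≈500 g/ha), or 40 ppm where marked; inoculated with Septoria tritici next day. Held saturated at 20 °C for 48 h, then 19 days at 20 °C; disease control rated visually 0–100 versus controls.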

[8] = test system: Septoria nodorum; experiment: Test D: wheat glume blotch, preventive spray on wheat seedlings, visual disease rating; details: for pest or weed control at 200 ppm: Parastagonospora nodorum, 216 h
Method in brief: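 Compounds in 3% acetone, then 50/50 acetone–water with 250 ppm Trem 014, sprayed to run-off at 200 ppm (500 g/ha; some at 40 ppm) one day before spore inoculation. Held 48 h saturated at 20 °C, then 7 days at 20 °C; visual rating as % disease control vs untreated (0–100).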

[9] = 200 ppm, 100 = 100% disease control, 0 = no control
[10] = 40 ppm (compound number followed by *)

COc1cc(OC)cc(-c2c(C(C)C)cnc(C)c2-c2ccccc2)c1 [Compound 4]
Test B rating (% disease control) [1, 9]: 92% | Test E rating (% disease control) [2, 9]: 99% | Test H rating (% disease control) [3, 9]: 0% | Test A rating (% disease control) [4, 9]: 99% | Test F rating (% disease control) [5, 9]: 99% | Test G rating (% disease control) [6, 9]: 0% | Test C rating (% disease control) [7, 9]: 99% | Test D rating (% disease control) [8, 9]: 0%

COc1cc(OC)cc(-c2c(C(C)C)c[n+]([O-])c(C)c2-c2ccccc2)c1 [Compound 5]
Test B rating (% disease control) [1, 9]: 92% | Test E rating (% disease control) [2, 9]: 90% | Test H rating (% disease control) [3, 9]: 0% | Test A rating (% disease control) [4, 9]: 98% | Test F rating (% disease control) [5, 9]: 99% | Test G rating (% disease control) [6, 9]: 0% | Test C rating (% disease control) [7, 9]: 95% | Test D rating (% disease control) [8, 9]: 0%

CCOC(=O)c1cnc(C)c(-c2ccccc2)c1-c1cc(OC)c(OC)c(OC)c1 [Compound 6]
Test B rating (% disease control) [1, 9]: 0% | Test E rating (% disease control) [2, 9]: 0% | Test H rating (% disease control) [3, 9]: 0% | Test A rating (% disease control) [4, 9]: 0% | Test F rating (% disease control) [5, 9]: 89% | Test G rating (% disease control) [6, 9]: 0% | Test C rating (% disease control) [7, 9]: 1% | Test D rating (% disease control) [8, 9]: 0%

COc1cc(OC)cc(-c2c(C(C)(C)O)cnc(C)c2-c2ccccc2F)c1 [Compound 18]
Test B rating (% disease control) [1, 9]: 99% | Test H rating (% disease control) [3, 9]: 0% | Test A rating (% disease control) [4, 9]: 98% | Test F rating (% disease control) [5, 9]: 97% | Test G rating (% disease control) [6, 9]: 47% | Test C rating (% disease control) [7, 9]: 100% | Test D rating (% disease control) [8, 9]: 0%

CCOC(=O)c1cnc(C)c(-c2ccccc2)c1-c1cc(OC)cc(OC)c1Cl [Compound 25]
Test B rating (% disease control) [1, 10]: 0% | Test E rating (% disease control) [2, 10]: 0% | Test H rating (% disease control) [3, 10]: 0% | Test A rating (% disease control) [4, 10]: 0% | Test F rating (% disease control) [5, 10]: 84% | Test C rating (% disease control) [7, 10]: 0% | Test D rating (% disease control) [8, 10]: 0%

CCOC(=O)c1cnc(C)c(-c2ccccc2)c1-c1cc(OC)cc(OC)c1F [Compound 26]
Test B rating (% disease control) [1, 9]: 68% | Test E rating (% disease control) [2, 9]: 0% | Test H rating (% disease control) [3, 9]: 0% | Test A rating (% disease control) [4, 9]: 94% | Test F rating (% disease control) [5, 9]: 98% | Test C rating (% disease control) [7, 9]: 86% | Test D rating (% disease control) [8, 9]: 0%

CCc1ncc(C(C)=O)c(-c2cc(OC)cc(OC)c2)c1-c1ccccc1 [Compound 27]
Test B rating (% disease control) [1, 9]: 80% | Test E rating (% disease control) [2, 9]: 92% | Test H rating (% disease control) [3, 9]: 0% | Test A rating (% disease control) [4, 9]: 98% | Test F rating (% disease control) [5, 9]: 99% | Test C rating (% disease control) [7, 9]: 100% | Test D rating (% disease control) [8, 9]: 0%

CCc1ncc(C(C)(C)O)c(-c2cc(OC)cc(OC)c2)c1-c1ccccc1 [Compound 28]
Test B rating (% disease control) [1, 9]: 28% | Test E rating (% disease control) [2, 9]: 93% | Test H rating (% disease control) [3, 9]: 0% | Test A rating (% disease control) [4, 9]: 96% | Test F rating (% disease control) [5, 9]: 99% | Test C rating (% disease control) [7, 9]: 100% | Test D rating (% disease control) [8, 9]: 0%

CCc1ncc(C(C)C)c(-c2cc(OC)cc(OC)c2)c1-c1ccccc1 [Compound 30]
Test B rating (% disease control) [1, 9]: 80% | Test E rating (% disease control) [2, 9]: 0% | Test H rating (% disease control) [3, 9]: 0% | Test A rating (% disease control) [4, 9]: 98% | Test F rating (% disease control) [5, 9]: 99% | Test C rating (% disease control) [7, 9]: 100% | Test D rating (% disease control) [8, 9]: 0%

COc1cc(OC)cc(-c2c(C(C)(C)O)cnc(C)c2-c2c(F)cccc2F)c1 [Compound 42]
Test B rating (% disease control) [1, 9]: 100% | Test H rating (% disease control) [3, 9]: 0% | Test A rating (% disease control) [4, 9]: 100% | Test F rating (% disease control) [5, 9]: 97% | Test G rating (% disease control) [6, 9]: 86% | Test C rating (% disease control) [7, 9]: 100% | Test D rating (% disease control) [8, 9]: 98%

C=C(C)c1cnc(C)c(-c2c(F)cc(F)cc2F)c1-c1cc(OC)cc(OC)c1 [Compound 43]
Test B rating (% disease control) [1, 9]: 100% | Test E rating (% disease control) [2, 9]: 100% | Test A rating (% disease control) [4, 9]: 100% | Test F rating (% disease control) [5, 9]: 100% | Test G rating (% disease control) [6, 9]: 100% | Test C rating (% disease control) [7, 9]: 100% | Test D rating (% disease control) [8, 9]: 78%

COc1cc(OC)cc(-c2c(C(C)C)cnc(C)c2-c2c(F)cccc2F)c1 [Compound 45]
Test B rating (% disease control) [1, 9]: 100% | Test E rating (% disease control) [2, 9]: 94% | Test A rating (% disease control) [4, 9]: 99% | Test F rating (% disease control) [5, 9]: 100% | Test G rating (% disease control) [6, 9]: 99% | Test C rating (% disease control) [7, 9]: 100% | Test D rating (% disease control) [8, 9]: 0%

COc1cc(OC)cc(-c2c(C3=CCCCC3)cnc(C)c2-c2ccc(F)cc2)c1 [Compound 46]
Test B rating (% disease control) [1, 9]: 95% | Test E rating (% disease control) [2, 9]: 31% | Test A rating (% disease control) [4, 9]: 81% | Test F rating (% disease control) [5, 9]: 98% | Test G rating (% disease control) [6, 9]: 0% | Test D rating (% disease control) [8, 9]: 0%

COc1cc(OC)cc(-c2c(C3CCCCC3)cnc(C)c2-c2ccc(F)cc2)c1 [Compound 47]
Test B rating (% disease control) [1, 9]: 97% | Test E rating (% disease control) [2, 9]: 67% | Test A rating (% disease control) [4, 9]: 91% | Test F rating (% disease control) [5, 9]: 96% | Test G rating (% disease control) [6, 9]: 99% | Test D rating (% disease control) [8, 9]: 0%

COc1cc(OC)cc(-c2c(C(C)C)cnc(C)c2-c2c(F)cc(F)cc2F)c1 [Compound 48]
Test B rating (% disease control) [1, 10]: 100% | Test E rating (% disease control) [2, 10]: 99% | Test A rating (% disease control) [4, 10]: 98% | Test F rating (% disease control) [5, 10]: 98% | Test G rating (% disease control) [6, 10]: 100% | Test D rating (% disease control) [8, 10]: 0%

COc1cc(OC)cc(-c2c(-c3ccc(F)cc3)c(C)nc(Cl)c2C2CCCC2)c1 [Compound 49, 2-chloro-3-cyclopentyl-4-(3,5-dimethoxyphenyl)-5-(4-fluorophenyl)-6-methylpyridine]
pest or weed control at 200 ppm [1, 9]: 0% | pest or weed control at 200 ppm [2, 9]: 16% | pest or weed control at 200 ppm [4, 9]: 0% | pest or weed control at 200 ppm [5, 9]: 0% | pest or weed control at 200 ppm [6, 9]: 0% | pest or weed control at 200 ppm [8, 9]: 0%

COc1cc(OC)cc(-c2c(C3CCCC3)cnc(C)c2-c2ccc(F)cc2)c1 [Compound 50, 5-cyclopentyl-4-(3,5-dimethoxyphenyl)-3-(4-fluorophenyl)-2-methylpyridine]
pest or weed control at 200 ppm [1, 9]: 99% | pest or weed control at 200 ppm [2, 9]: 100% | pest or weed control at 200 ppm [4, 9]: 92% | pest or weed control at 200 ppm [5, 9]: 97% | pest or weed control at 200 ppm [6, 9]: 98% | pest or weed control at 200 ppm [8, 9]: 60%

COc1cc(OC)cc(-c2c(C(C)(C)O)c[n+]([O-])c(C)c2-c2ccccc2)c1 [Compound 52]
Test B rating (% disease control) [1, 9]: 0% | Test E rating (% disease control) [2, 9]: 0% | Test H rating (% disease control) [3, 9]: 0% | Test A rating (% disease control) [4, 9]: 25% | Test F rating (% disease control) [5, 9]: 0% | Test G rating (% disease control) [6, 9]: 0% | Test D rating (% disease control) [8, 9]: 0%
